pIC50: −log10 of the molar value. Several values for one entry are separate records, joined by “and”; a condition that tells them apart may be missing. Identical values can stand only once.
Key:
Genome polyprotein [1] = biological target: T1, Genome polyprotein (dengue virus type 2, UniProt P29990); type: functional, Thailand/16681/1984
Genome polyprotein [2] = biological target: T1, Genome polyprotein; type: functional, Thailand/16681/1984; remark: listed apart in the source

T1 sequence (P29990 1346-1475 limits assumed): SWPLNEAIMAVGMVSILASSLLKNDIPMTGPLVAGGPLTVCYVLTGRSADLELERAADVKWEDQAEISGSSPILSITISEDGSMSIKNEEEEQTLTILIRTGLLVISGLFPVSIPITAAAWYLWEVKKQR
T1 sequence (P29990 1476-2093 limits assumed): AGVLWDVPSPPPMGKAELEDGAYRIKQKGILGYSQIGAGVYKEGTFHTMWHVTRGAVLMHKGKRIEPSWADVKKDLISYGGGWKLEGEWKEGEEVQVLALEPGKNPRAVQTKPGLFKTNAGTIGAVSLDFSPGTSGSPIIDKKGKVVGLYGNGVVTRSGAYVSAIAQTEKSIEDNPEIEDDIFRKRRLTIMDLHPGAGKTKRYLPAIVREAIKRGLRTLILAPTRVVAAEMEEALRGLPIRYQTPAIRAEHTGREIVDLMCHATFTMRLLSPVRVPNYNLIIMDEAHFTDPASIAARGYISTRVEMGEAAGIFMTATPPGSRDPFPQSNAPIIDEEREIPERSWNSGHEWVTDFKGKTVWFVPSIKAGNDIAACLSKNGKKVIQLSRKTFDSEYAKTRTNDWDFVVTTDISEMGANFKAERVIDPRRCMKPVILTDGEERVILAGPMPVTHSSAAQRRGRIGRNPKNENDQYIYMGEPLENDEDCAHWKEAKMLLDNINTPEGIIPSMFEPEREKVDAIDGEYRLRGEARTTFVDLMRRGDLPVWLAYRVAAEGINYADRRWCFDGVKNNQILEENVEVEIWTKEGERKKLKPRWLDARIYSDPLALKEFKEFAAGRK

## COc1ccc([C@H]2C[C@H](C)CN2C(=O)Nc2ccc3c(c2)CNC3)cc1
Genome polyprotein [1]
  pIC50: < 4.00
Genome polyprotein [2]
  pIC50: < 4.00

## O=C1Cc2c(cccc2C(=O)Nc2ccc3c(n2)CNC3)N1
Genome polyprotein [1]
  pIC50: < 4.00
Genome polyprotein [2]
  pIC50: < 4.00

## O=C(Nc1ccc2c(c1)CNC2)c1cc(Br)cc2c1OCO2
Genome polyprotein [1]
  pIC50: < 4.00
Genome polyprotein [2]
  pIC50: < 4.00

## NCc1cc(NC(=O)c2cc(Cl)cc(NC(=O)OCc3ccccc3)c2)cc(C2=CC[C@H](C(=O)O)C2)c1
Genome polyprotein [1]
  pIC50: < 4.00
Genome polyprotein [2]
  pIC50: < 4.00

## CC(C)c1nc2c(C(=O)Nc3cccc(-c4nnn[nH]4)c3)cccc2[nH]1
Genome polyprotein [1]
  pIC50: < 4.00
Genome polyprotein [2]
  pIC50: < 4.00

## NCCc1csc2cc(C(=O)Nc3ccc4c(c3)CNC4)ccc12
Genome polyprotein [1]
  pIC50: < 4.00
Genome polyprotein [2]
  pIC50: < 4.00

## O=C(NC[C@H]1CCCO1)[C@H](Nc1ccc2c(c1)CNC2)c1cc(Cl)cc(C2CC2)c1
Genome polyprotein [1]
  pIC50: < 4.00
Genome polyprotein [2]
  pIC50: < 4.00

## O=C(Cn1ccnc(N2CC[C@H](CO)C2)c1=O)NCc1cccs1
Genome polyprotein [1]
  pIC50: < 4.00
Genome polyprotein [2]
  pIC50: < 4.00

## Cn1cc(C(=O)Nc2cccc(CN)c2)c(-c2cnccn2)n1
Genome polyprotein [1]
  pIC50: < 4.00
Genome polyprotein [2]
  pIC50: < 4.00

## NCc1cccc(NC(=O)[C@H]2C[C@@H](C(F)(F)F)C[C@@H](C(F)(F)F)C2)c1
Genome polyprotein [1]
  pIC50: < 4.00
Genome polyprotein [2]
  pIC50: < 4.00

## C[C@](N)(C(=O)Nc1ccc2c(c1)C(=O)OC2)c1cccs1
Genome polyprotein [1]
  pIC50: < 4.00
Genome polyprotein [2]
  pIC50: < 4.00

## O=C(Nc1ccc2c(c1)CNC2)[C@H]1CCCc2[nH]ncc21
Genome polyprotein [1]
  pIC50: < 4.00
Genome polyprotein [2]
  pIC50: < 4.00

## C=Cc1cc2c(cc1NC(=O)c1cc(F)cc3[nH]ncc13)CNC2
Genome polyprotein [1]
  pIC50: 4.28
Genome polyprotein [2]
  pIC50: 4.48

## NCCNS(=O)(=O)c1ccc(NC(=O)c2cc(Cl)cc(NC(=O)OCc3ccccc3)c2)cc1
Genome polyprotein [1]
  pIC50: 4.47
Genome polyprotein [2]
  pIC50: < 4.00

## CCCn1cc2c(C(=O)Nc3ccc4c(c3)CNC4)cc(Cl)cc2n1
Genome polyprotein [1]
  pIC50: < 4.00
Genome polyprotein [2]
  pIC50: < 4.00

## Cc1c(C(=O)O)sc2ncc(Cc3c[nH]c4ccc(Cl)cc34)cc12
Genome polyprotein [1]
  pIC50: 4.33
Genome polyprotein [2]
  pIC50: 4.60

## Cc1cc(=O)c(C(=O)Nc2cccc(CN)c2)nn1-c1ccccc1C(F)(F)F
Genome polyprotein [1]
  pIC50: < 4.00
Genome polyprotein [2]
  pIC50: < 4.00

## O=C(Nc1ccc2c(c1)CNC2)c1cccc2c3c([nH]c12)CCC3
Genome polyprotein [1]
  pIC50: < 4.00
Genome polyprotein [2]
  pIC50: < 4.00

## O=C1Cc2c(cccc2C(=O)Nc2nnc3n2CCCS3)N1
Genome polyprotein [1]
  pIC50: < 4.00
Genome polyprotein [2]
  pIC50: < 4.00

## C[C@H]1C(=O)Nc2ccc(C(=O)Nc3ccc4c(c3)CNC4)cc21
Genome polyprotein [1]
  pIC50: 4.46
Genome polyprotein [2]
  pIC50: 4.60 and 4.76

## O=C(Nc1cccc(-n2nn[nH]c2=O)c1)c1cc(Cl)cc(C2CC2)c1
Genome polyprotein [1]
  pIC50: 4.01
Genome polyprotein [2]
  pIC50: 4.30

## O=C(Nc1ccc2c(c1)CNC2)N1CCC[C@](O)(c2ccccc2)C1
Genome polyprotein [1]
  pIC50: < 4.00
Genome polyprotein [2]
  pIC50: < 4.00

## CNC(=O)C[C@H](Nc1ccccn1)c1cc(Cl)cc(CN)c1
Genome polyprotein [1]
  pIC50: < 4.00
Genome polyprotein [2]
  pIC50: < 4.00

## NCc1cccc(NC(=O)c2cc(Cl)cc3c2NCCC3)c1
Genome polyprotein [1]
  pIC50: < 4.00
Genome polyprotein [2]
  pIC50: < 4.00

## CN(C)Cc1ccc(NC(=O)c2cc(Cl)cc(NC(=O)OCc3ccccc3)c2)cc1
Genome polyprotein [1]
  pIC50: < 4.00
Genome polyprotein [2]
  pIC50: < 4.00

## CN1C[C@H](c2cccc(CN)c2)[C@@H](c2cc(Cl)cc(NC(=O)OCc3ccccc3)c2)C1
Genome polyprotein [1]
  pIC50: < 4.00
Genome polyprotein [2]
  pIC50: < 4.00

## O=C(Nc1ccc2c(c1)CNC2)N1CCC[C@H](Cc2nccs2)C1
Genome polyprotein [1]
  pIC50: < 4.00
Genome polyprotein [2]
  pIC50: < 4.00

## CCOCC1(c2nc3c(C(=O)Nc4ccc5c(c4)CNC5)cc(F)cc3[nH]2)CC1
Genome polyprotein [1]
  pIC50: < 4.00
Genome polyprotein [2]
  pIC50: < 4.00

## Cc1c(CN)cccc1NC(=O)c1cc(Cl)cc(NC(=O)OCc2ccccc2)c1
Genome polyprotein [1]
  pIC50: < 4.00
Genome polyprotein [2]
  pIC50: < 4.00

## Cc1ccc2[nH]ncc2c1C(=O)Nc1ccc2c(c1)CNC2
Genome polyprotein [1]
  pIC50: < 4.00
Genome polyprotein [2]
  pIC50: < 4.00

## NC[C@H]1C[C@](F)(CNC(=O)c2cc(Cl)cc(NC(=O)OCc3ccccc3)c2)C1
Genome polyprotein [1]
  pIC50: < 4.00
Genome polyprotein [2]
  pIC50: < 4.00

## O=C(Nc1cc2c(c(-c3c[nH]c(=O)c(F)c3)c1)CNC2)c1cc(F)cc2[nH]ncc12
Genome polyprotein [1]
  pIC50: 4.16
Genome polyprotein [2]
  pIC50: 4.41 and 4.16

## O=C(Nc1ccc2c(c1)CNC2)c1cc(Cl)cc(-n2cccc2)c1
Genome polyprotein [1]
  pIC50: < 4.00
Genome polyprotein [2]
  pIC50: < 4.00

## C[C@H]1NCc2cc(NC(=O)c3cc(F)cc4[nH]ncc34)ccc21
Genome polyprotein [1]
  pIC50: 4.16
Genome polyprotein [2]
  pIC50: 4.21 and 4.17

— ChEMBL document CHEMBL5604063, “ASAP - DENV-2 NS2B-NS3 protease fluorescence dose response” (2024)
